From patent US20250353891A1 (MEDIMMUNE LIMITED, priority 2022, published 2025) come the findings set out here.

Starred links: 1 amine or outer side, 2 acyl side, 3 side chain; linkers in the order of their positions; H or OH if unused. Non-standard residues stand in square brackets, D forms with d. Residues, ends and D or L forms follow the SMILES beside them. Groups on a side chain read outwards from the residue. *: point of attachment. C20 diacid = O=C(O)CCCCCCCCCCCCCCCCCCC(=O)*; C18 diacid = O=C(O)CCCCCCCCCCCCCCCCC(=O)*; γGlu = O=C(O)[C@H](CCC(=O)[*:2])N[*:1]; αMeF = C[C@](N)(Cc1ccccc1)C(=O)O; AEEA = NCCOCCOCC(=O)O; Aib = CC(C)(N)C(=O)O

In experiment [1] the target is human GLP-1 receptor (hGLP-1R) (Homo sapiens, UniProt P43220). The experiment in a line: cAMP production (HTRF) in CHO cells expressing hGLP-1R. The format is cell-based. The following applies: for EC50: Table 7, peptides modified at position 20, cAMP in CHO hGLP-1R cells, geometric mean, read-out: hGLP-1R EC50; for % Relative Potency Ratio: Table 7, % GLP-1R activity relative to GLP-1 / % GlucR activity relative to glucagon. The arrangement: expressed in transfected cells. Put shortly: (§1)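 Read-out: HTRF cAMP (anti-cAMP cryptate donor, cAMP-d2 acceptor in conjugate/lysis buffer), converted to % Delta F and fitted by 4-parameter logistic for EC50. Cell densities were 1×10^5 cells/mL (hGLP-1R) or 2×10^5 cells/mL (hGCGR). Stimulation lasted 30 min at room temperature.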
(In general: Changes in cAMP serve as a functional read-out for many G protein-coupled receptors.)

Experiment [2] addresses human glucagon receptor (hGCGR) (Homo sapiens, UniProt P47871). The experiment in a line: cAMP production (HTRF) in CHO cells expressing hGCGR. The format is cell-based. More on the design: expressed in transfected cells. The following applies: Table 7, peptides modified at position 20; cAMP in CHO hGCGR cells; geometric mean; read-out: hGluc-R EC50. The method in brief: as §1

Sequence of human glucagon receptor (hGCGR) (P47871 26-477): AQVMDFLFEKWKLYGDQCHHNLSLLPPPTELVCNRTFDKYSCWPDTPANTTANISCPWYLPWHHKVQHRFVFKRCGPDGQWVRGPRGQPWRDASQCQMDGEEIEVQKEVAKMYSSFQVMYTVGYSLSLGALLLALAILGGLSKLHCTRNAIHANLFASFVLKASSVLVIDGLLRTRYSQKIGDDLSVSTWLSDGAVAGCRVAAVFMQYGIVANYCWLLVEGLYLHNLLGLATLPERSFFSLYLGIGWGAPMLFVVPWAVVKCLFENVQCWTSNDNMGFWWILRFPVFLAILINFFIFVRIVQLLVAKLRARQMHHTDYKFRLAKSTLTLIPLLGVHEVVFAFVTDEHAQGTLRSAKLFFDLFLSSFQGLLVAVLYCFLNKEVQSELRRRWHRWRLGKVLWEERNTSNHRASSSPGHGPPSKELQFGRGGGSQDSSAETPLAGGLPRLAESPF
Sequence of human GLP-1 receptor (hGLP-1R) (P43220 24-463): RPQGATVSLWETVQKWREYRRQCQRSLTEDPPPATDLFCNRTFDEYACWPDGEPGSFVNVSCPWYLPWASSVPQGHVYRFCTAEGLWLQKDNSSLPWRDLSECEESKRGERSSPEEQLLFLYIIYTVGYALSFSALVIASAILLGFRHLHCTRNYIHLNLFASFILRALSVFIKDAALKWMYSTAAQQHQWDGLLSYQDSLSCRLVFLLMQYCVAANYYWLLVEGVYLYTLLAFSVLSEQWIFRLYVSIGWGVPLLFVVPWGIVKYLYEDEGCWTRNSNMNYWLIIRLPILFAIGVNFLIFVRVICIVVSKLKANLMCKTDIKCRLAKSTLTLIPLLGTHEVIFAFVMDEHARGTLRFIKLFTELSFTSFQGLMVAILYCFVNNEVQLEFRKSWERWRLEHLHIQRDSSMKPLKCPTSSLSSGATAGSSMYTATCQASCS

The term EC50 denotes the concentration at which the effect is half-maximal. On to `CC[C@H](C)[C@H](NC(=O)[C@H](Cc1c[nH]c2ccccc12)NC(=O)[C@H](CCC(N)=O)NC(=O)[C@@H](NC(=O)[C@H](Cc1ccccc1)NC(=O)[C@H](CC(=O)O)NC(=O)[C@H](CCCCNC(=O)COCCOCCNC(=O)COCCOCCNC(=O)CC[C@H](NC(=O)CCCCCCCCCCCCCCCCC(=O)O)C(=O)O)NC(=O)[C@H](C)NC(=O)[C@H](C)NC(=O)[C@H](CCCNC(=N)N)NC(=O)[C@H](CO)NC(=O)[C@H](CC(=O)O)NC(=O)[C@H](CC(C)C)NC(=O)[C@](C)(Cc1ccccc1)NC(=O)[C@H](CCCCN)NC(=O)[C@H](CO)NC(=O)[C@@H](NC(=O)[C@H](CC(=O)O)NC(=O)[C@H](CO)NC(=O)[C@@H](NC(=O)[C@H](Cc1ccccc1)NC(=O)[C@H](CO)NC(=O)CNC(=O)[C@H](Cc1c[nH]cn1)NC(=O)C(C)(C)NC(=O)[C@@H](N)Cc1c[nH]cn1)[C@@H](C)O)C(C)C)C(C)C)C(=O)N[C@@H](C)C(=O)N[C@@H](CC(N)=O)C(=O)N[C@H](C(N)=O)[C@@H](C)O` [Peptide 293] (H-H[Aib]HGSFTSDVSK[αMeF]LDSRAAK([AEEA-AEEA-γGlu-C18 diacid])DFVQWIANT-NH2), for which, in experiment [1], the EC50 amounted to 0.092 nM and the “% Relative Potency Ratio” value was determined as 0.7. Besides, in experiment [2], the EC50 worked out at 0.0335 nM.

For the compound `CC[C@H](C)[C@H](NC(=O)[C@H](Cc1c[nH]c2ccccc12)NC(=O)[C@H](CCC(N)=O)NC(=O)[C@@H](NC(=O)[C@](C)(Cc1ccccc1)NC(=O)[C@H](CC(=O)O)NC(=O)[C@H](CCCCNC(=O)COCCOCCNC(=O)COCCOCCNC(=O)CC[C@H](NC(=O)CCCCCCCCCCCCCCCCC(=O)O)C(=O)O)NC(=O)[C@H](C)NC(=O)[C@H](C)NC(=O)[C@H](CCCNC(=N)N)NC(=O)[C@H](CO)NC(=O)[C@H](CC(=O)O)NC(=O)[C@H](CC(C)C)NC(=O)[C@H](Cc1ccc(O)cc1)NC(=O)[C@H](CCCCN)NC(=O)[C@H](CO)NC(=O)[C@@H](NC(=O)[C@H](CC(=O)O)NC(=O)[C@H](CO)NC(=O)[C@@H](NC(=O)[C@H](Cc1ccccc1)NC(=O)[C@H](CO)NC(=O)CNC(=O)[C@H](Cc1c[nH]cn1)NC(=O)C(C)(C)NC(=O)[C@@H](N)Cc1c[nH]cn1)[C@@H](C)O)C(C)C)C(C)C)C(=O)N[C@@H](C)C(=O)N[C@@H](CC(N)=O)C(=O)N[C@H](C(N)=O)[C@@H](C)O` [Peptide 294] (H-H[Aib]HGSFTSDVSKYLDSRAAK([AEEA-AEEA-γGlu-C18 diacid])D[αMeF]VQWIANT-NH2), the EC50 in experiment [1] stood at 0.51 nM; in experiment [2] it was 0.102 nM. For the same compound, the “% Relative Potency Ratio” value in experiment [1] was determined as 0.4.

`CC[C@H](C)[C@H](NC(=O)C(C)(C)NC(=O)[C@H](CCC(N)=O)NC(=O)[C@@H](NC(=O)[C@](C)(Cc1ccccc1)NC(=O)[C@H](CC(=O)O)NC(=O)[C@H](CCCCNC(=O)COCCOCCNC(=O)COCCOCCNC(=O)CC[C@H](NC(=O)CC[C@H](NC(=O)CCCCCCCCCCCCCCCCCCC(=O)O)C(=O)O)C(=O)O)NC(=O)[C@H](C)NC(=O)[C@H](C)NC(=O)[C@H](CCCNC(=N)N)NC(=O)[C@H](CO)NC(=O)[C@H](CC(=O)O)NC(=O)[C@H](CC(C)C)NC(=O)C(C)(C)NC(=O)[C@H](CCCCN)NC(=O)[C@H](CO)NC(=O)[C@@H](NC(=O)[C@H](CC(=O)O)NC(=O)[C@H](CO)NC(=O)[C@@H](NC(=O)[C@](C)(Cc1ccccc1)NC(=O)[C@H](CO)NC(=O)CNC(=O)[C@H](Cc1c[nH]cn1)NC(=O)C(C)(C)NC(=O)[C@@H](N)Cc1c[nH]cn1)[C@@H](C)O)C(C)C)C(C)C)C(=O)N[C@@H](C)C(=O)N[C@@H](CC(N)=O)C(=O)N[C@H](C(N)=O)[C@@H](C)O` [Peptide 295] (H-H[Aib]HGS[αMeF]TSDVSK[Aib]LDSRAAK([AEEA-AEEA-γGlu-γGlu-C20 diacid])D[αMeF]VQ[Aib]IANT-NH2): the EC50 in experiment [1] came out at 0.312 nM; in experiment [2], 17.1 nM. For the same compound, in experiment [1], the “% Relative Potency Ratio” value was found to be 108.2.

On to `CC[C@H](C)[C@H](NC(=O)C(C)(C)NC(=O)[C@H](CCC(N)=O)NC(=O)[C@@H](NC(=O)[C@](C)(Cc1ccccc1)NC(=O)[C@H](CC(=O)O)NC(=O)[C@H](CCCCNC(=O)COCCOCCNC(=O)COCCOCCNC(=O)CC[C@H](NC(=O)CCCCCCCCCCCCCCCCC(=O)O)C(=O)O)NC(=O)[C@H](C)NC(=O)[C@H](C)NC(=O)[C@H](CCCNC(=N)N)NC(=O)[C@H](CO)NC(=O)[C@H](CC(=O)O)NC(=O)[C@H](CC(C)C)NC(=O)C(C)(C)NC(=O)[C@H](CCCCN)NC(=O)[C@H](CO)NC(=O)[C@@H](NC(=O)[C@H](CC(=O)O)NC(=O)[C@H](CO)NC(=O)[C@@H](NC(=O)[C@](C)(Cc1ccccc1)NC(=O)[C@H](CO)NC(=O)CNC(=O)[C@H](Cc1c[nH]cn1)NC(=O)C(C)(C)NC(=O)[C@@H](N)Cc1c[nH]cn1)[C@@H](C)O)C(C)C)C(C)C)C(=O)N[C@@H](C)C(=O)N[C@@H](CC(N)=O)C(=O)N[C@H](C(N)=O)[C@@H](C)O` [Peptide 296] (H-H[Aib]HGS[αMeF]TSDVSK[Aib]LDSRAAK([AEEA-AEEA-γGlu-C18 diacid])D[αMeF]VQ[Aib]IANT-NH2), for which, in experiment [1], the concentration giving a half-maximal response (EC50) was 0.0641 nM and the “% Relative Potency Ratio” value is listed as 100.3. Besides, the EC50 in experiment [2] was 3.25 nM.

Consider `CC[C@H](C)[C@H](NC(=O)C(C)(C)NC(=O)[C@H](CCC(N)=O)NC(=O)[C@@H](NC(=O)[C@](C)(Cc1ccccc1)NC(=O)[C@H](CC(=O)O)NC(=O)[C@H](CCCCNC(=O)COCCOCCNC(=O)COCCOCCNC(=O)CC[C@H](NC(=O)CCCCCCCCCCCCCCCCC(=O)O)C(=O)O)NC(=O)[C@H](C)NC(=O)[C@H](C)NC(=O)[C@H](CCCNC(=N)N)NC(=O)[C@H](CO)NC(=O)[C@H](CC(=O)O)NC(=O)[C@H](CC(C)C)NC(=O)[C@](C)(Cc1ccccc1)NC(=O)[C@H](CCCNC(=N)N)NC(=O)[C@H](CO)NC(=O)[C@@H](NC(=O)[C@H](CC(=O)O)NC(=O)[C@H](CO)NC(=O)[C@@H](NC(=O)[C@](C)(Cc1ccccc1)NC(=O)[C@H](CO)NC(=O)CNC(=O)[C@H](Cc1c[nH]cn1)NC(=O)C(C)(C)NC(=O)[C@@H](N)Cc1c[nH]cn1)[C@@H](C)O)C(C)C)C(C)C)C(=O)N[C@@H](C)C(=O)N[C@@H](CC(N)=O)C(=O)N[C@H](C(N)=O)[C@@H](C)O` [Peptide 297] (H-H[Aib]HGS[αMeF]TSDVSR[αMeF]LDSRAAK([AEEA-AEEA-γGlu-C18 diacid])D[αMeF]VQ[Aib]IANT-NH2), for which the results for the EC50 in experiment [1] and in experiment [2] were 0.0304 nM and 0.104 nM, respectively. Moreover, the “% Relative Potency Ratio” value in experiment [1] came out at 6.8.

In the case of `CC[C@H](C)[C@H](NC(=O)C(C)(C)NC(=O)[C@H](CCC(N)=O)NC(=O)[C@@H](NC(=O)[C@](C)(Cc1ccccc1)NC(=O)[C@H](CC(=O)O)NC(=O)[C@H](CCCCNC(=O)COCCOCCNC(=O)COCCOCCNC(=O)CC[C@H](NC(=O)CC[C@H](NC(=O)CCCCCCCCCCCCCCCCCCC(=O)O)C(=O)O)C(=O)O)NC(=O)[C@H](C)NC(=O)[C@H](C)NC(=O)[C@H](CCCNC(=N)N)NC(=O)[C@H](CO)NC(=O)[C@H](CC(=O)O)NC(=O)[C@H](CC(C)C)NC(=O)[C@](C)(Cc1ccccc1)NC(=O)[C@H](CCCNC(=N)N)NC(=O)[C@H](CO)NC(=O)[C@@H](NC(=O)[C@H](CC(=O)O)NC(=O)[C@H](CO)NC(=O)[C@@H](NC(=O)[C@](C)(Cc1ccccc1)NC(=O)[C@H](CO)NC(=O)CNC(=O)[C@H](Cc1c[nH]cn1)NC(=O)C(C)(C)NC(=O)[C@@H](N)Cc1c[nH]cn1)[C@@H](C)O)C(C)C)C(C)C)C(=O)N[C@@H](C)C(=O)N[C@@H](CC(N)=O)C(=O)N[C@H](C(N)=O)[C@@H](C)O` [Peptide 298] (H-H[Aib]HGS[αMeF]TSDVSR[αMeF]LDSRAAK([AEEA-AEEA-γGlu-γGlu-C20 diacid])D[αMeF]VQ[Aib]IANT-NH2), the figures for the EC50 in experiment [1] and in experiment [2] were 0.0755 nM and 0.573 nM, respectively. Besides, the “% Relative Potency Ratio” value in experiment [1] is given as 15.0.

In the case of `CC[C@H](C)[C@H](NC(=O)C(C)(C)NC(=O)[C@H](CCC(N)=O)NC(=O)[C@@H](NC(=O)[C@](C)(Cc1ccccc1)NC(=O)[C@H](CC(=O)O)NC(=O)[C@H](CCCCNC(=O)COCCOCCNC(=O)COCCOCCNC(=O)CC[C@H](NC(=O)CC[C@H](NC(=O)CCCCCCCCCCCCCCCCCCC(=O)O)C(=O)O)C(=O)O)NC(=O)[C@H](C)NC(=O)[C@H](C)NC(=O)[C@H](CCCNC(=N)N)NC(=O)[C@H](CO)NC(=O)[C@H](CC(=O)O)NC(=O)[C@H](CC(C)C)NC(=O)[C@](C)(Cc1ccccc1)NC(=O)[C@H](CCCCN)NC(=O)[C@H](CO)NC(=O)[C@@H](NC(=O)[C@H](CC(=O)O)NC(=O)[C@H](CO)NC(=O)[C@@H](NC(=O)[C@](C)(Cc1ccccc1)NC(=O)[C@H](CO)NC(=O)CNC(=O)[C@H](Cc1c[nH]cn1)NC(=O)C(C)(C)NC(=O)[C@@H](N)Cc1c[nH]cn1)[C@@H](C)O)C(C)C)C(C)C)C(=O)N[C@@H](C)C(=O)N[C@@H](CCC(=O)O)C(=O)N[C@H](C(N)=O)[C@@H](C)O` [Peptide 299] (H-H[Aib]HGS[αMeF]TSDVSK[αMeF]LDSRAAK([AEEA-AEEA-γGlu-γGlu-C20 diacid])D[αMeF]VQ[Aib]IAET-NH2), the values for the EC50 in experiment [1] and in experiment [2] were 0.0758 nM and 0.193 nM, respectively.
